Measured values published in ChEMBL document CHEMBL5247609, “Novel nitric oxide-releasing derivatives of pyranocarbazole as antitumor agents: Design, synthesis, biological evaluation, and nitric oxide release studies” (Eur J Med Chem, 2022).
The source made the active and inactive calls. The rule behind the calls is not given here.

What was measured:
[1] = system: MDA-MB-231; assay: Induction of cell cycle arrest in human MDA-MB-231 cells assessed as decrease in cyclin B1 expression at 0.5 to 2 uM by Western blotting analysis; assay type: functional, cell-based; conditions: dose 0.5-2 µM, time 24.0 hrs
[2] = system: MDA-MB-231; assay: Induction of apoptosis in human MDA-MB-231 cells assessed as viable cells measured at 1 uM after 48 hrs by FITC-Annexin-V and propidium iodide based flow cytometric analysis (reference value: 94.4% ); assay type: functional; conditions: read-out: Activity
[3] = system: MX1; assay: Induction of apoptosis in human MX1 cells assessed as early apoptotic cells measured at 2 uM after 48 hrs by FITC-Annexin-V and propidium iodide based flow cytometric analysis (reference value: 6.30%); assay type: functional
[4] = system: MDA-MB-231; assay: Induction of morphological changes in human MDA-MB-231 cells at 0.5 to 2 uM measured after 24 hrs by bright field inverted microscopic analysis; assay type: functional, cell-based; conditions: dose 0.5-2 µM
[5] = system: MDA-MB-231; assay: Induction of apoptosis in human MDA-MB-231 cells assessed as early apoptotic cells measured at 5 uM after 48 hrs by FITC-Annexin-V and propidium iodide based flow cytometric analysis (reference value: 2.71%); assay type: functional
[6] = system: EMT6; assay: Antitumor activity against mouse EMT6 cells allografted in BALBC mouse assessed as reduction in tumor progression at 150 mg/kg, IG administered every 3 days for 21 days; assay type: functional, organism-based; conditions: time 21.0 day
[7] = system: MDA-MB-231; assay: Induction of apoptosis in human MDA-MB-231 cells assessed as downregulation of Bcl-2 by Western blotting analysis; assay type: functional, cell-based; conditions: dose 0.5-2 µM
[8] = system: MDA-MB-231; assay: Induction of morphological changes in human MDA-MB-231 cells assessed as decrease in cell size at 0.5 to 2 uM measured after 24 hrs by bright field inverted microscopic analysis; assay type: functional, cell-based; conditions: dose 0.5-2 µM
[9] = system: MX1; assay: Induction of apoptosis in human MX1 cells assessed as viable cells measured at 2 uM after 48 hrs by FITC-Annexin-V and propidium iodide based flow cytometric analysis (reference value: 88.4%); assay type: functional; conditions: read-out: Activity
[10] = system: MX1; assay: Induction of apoptosis in human MX1 cells assessed as viable cells measured at 5 uM after 48 hrs by FITC-Annexin-V and propidium iodide based flow cytometric analysis (reference value: 88.4%); assay type: functional; conditions: read-out: Activity
[11] = system: MX1; assay: Induction of apoptosis in human MX1 cells assessed as downregulation of Bcl-2 by Western blotting analysis; assay type: functional, cell-based; conditions: dose 0.5-2 µM
[12] = system: MX1; assay: Induction of apoptosis in human MX1 cells assessed as early apoptotic cells measured at 0.5 uM after 48 hrs by FITC-Annexin-V and propidium iodide based flow cytometric analysis (reference value: 6.30%); assay type: functional
[13] = system: MDA-MB-231; assay: Induction of apoptosis in human MDA-MB-231 cells assessed as increase in cleaved PARP expression at 0.5 to 2 uM by Western blotting analysis; assay type: functional, cell-based; conditions: dose 0.5-2 µM
[14] = system: MDA-MB-231; assay: Induction of apoptosis in human MDA-MB-231 cells assessed as early apoptotic cells measured at 1 uM after 48 hrs by FITC-Annexin-V and propidium iodide based flow cytometric analysis (reference value: 2.71%); assay type: functional
[15] = system: MDA-MB-231; assay: Inhibition of PI3K/Akt signaling in human MDA-MB-231 cells assessed as decrease in total Akt expression level incubated for 24 hrs by Western blotting analysis; assay type: cell-based
[16] = system: MX1; assay: Induction of apoptosis in human MX1 cells assessed as early apoptotic cells measured at 5 uM after 48 hrs by FITC-Annexin-V and propidium iodide based flow cytometric analysis (reference value: 6.30%); assay type: functional
[17] = system: MX1; assay: Induction of cell cycle arrest in human MX1 cells assessed as accumulation of cells at G0/G1 phase at 0.5 to 2 uM measured after 24 hrs by propidium iodide staining based FACS calibur flow cytometeric analysis (reference value: 39.2%); assay type: functional; conditions: dose 0.5-2 µM
[18] = system: MDA-MB-231; assay: Induction of apoptosis in human MDA-MB-231 cells assessed as late apoptotic cells measured at 1 uM after 48 hrs by FITC-Annexin-V and propidium iodide based flow cytometric analysis (reference value: 2.68%); assay type: functional
[19] = system: MX1; assay: Induction of apoptosis in human MX1 cells assessed as upregulation of Bax by Western blotting analysis; assay type: functional, cell-based; conditions: dose 0.5-2 µM
[20] = system: MDA-MB-231; assay: Induction of apoptosis in human MDA-MB-231 cells assessed as early apoptotic cells measured at 0.5 uM after 48 hrs by FITC-Annexin-V and propidium iodide based flow cytometric analysis (reference value: 2.71%); assay type: functional
[21] = system: MDA-MB-231; assay: Antitumor activity against human MDA-MB-231 cells xenografted in BALBC mouse assessed as reduction of tumor volume at 150 mg/kg, IG administered every 3 days for 21 days relative to control; assay type: functional; parameters: scale not given: the % may be the effect or the level left; conditions: time 21 day
[22] = system: MX1; assay: Induction of apoptosis in human MX1 cells assessed as viable cells measured at 0.5 uM after 48 hrs by FITC-Annexin-V and propidium iodide based flow cytometric analysis (reference value: 88.4%); assay type: functional; conditions: read-out: Activity
[23] = system: MX1; assay: Induction of cell cycle arrest in human MX1 cells assessed as increase in CDK6 expression at 0.5 to 2 uM by Western blotting analysis; assay type: functional, cell-based; conditions: dose 0.5-2 µM, time 24.0 hrs
[24] = system: MDA-MB-231; assay: Induction of cell cycle arrest in human MDA-MB-231 cells assessed as increase in CDK6 expression at 0.5 to 2 uM by Western blotting analysis; assay type: functional, cell-based; conditions: dose 0.5-2 µM, time 24.0 hrs
[25] = system: MDA-MB-231; assay: Induction of morphological changes in human MDA-MB-231 cells assessed as decrease in cell number at 0.5 to 2 uM measured after 24 hrs by bright field inverted microscopic analysis; assay type: functional, cell-based; conditions: dose 0.5-2 µM
[26] = system: NCI-H460; assay: Antiproliferative activity against human H460 cells assessed as reduction in cell viability after 96 hrs by MTT assay; assay type: functional, cell-based; conditions: NCI-H460, 96 h
[27] = system: MDA-MB-231; assay: Antiproliferative activity against human MDA-MB-231 cells assessed as decrease in number of colony formation at 0.25 uM measured after 14 days by crystal violet staining based analysis; assay type: functional, cell-based; conditions: time 14.0 day
[28] = system: MDA-MB-231; assay: Induction of apoptosis in human MDA-MB-231 cells assessed as upregulation of Bax by Western blotting analysis; assay type: functional, cell-based; conditions: dose 0.5-2 µM
[29] = system: MDA-MB-231; assay: Induction of apoptosis in human MDA-MB-231 cells assessed as total apoptotic cells measured at 5 uM after 48 hrs by FITC-Annexin-V and propidium iodide based flow cytometric analysis (reference value: 6.2%); assay type: functional
[30] = system: MDA-MB-231; assay: Induction of apoptosis in human MDA-MB-231 cells assessed as necrotic cells measured at 1 uM after 48 hrs by FITC-Annexin-V and propidium iodide based flow cytometric analysis (reference value: 0.253 %); assay type: functional
[31] = system: MDA-MB-231; assay: Antitumor activity against human MDA-MB-231 cells xenografted in ig dosed BALBc mouse assessed as inhibition of tumor growth administered every 3 days for 21 days; assay type: functional, organism-based; conditions: time 21.0 day
[32] = system: MDA-MB-231; assay: Induction of apoptosis in human MDA-MB-231 cells assessed as viable cells measured at 0.5 uM after 48 hrs by FITC-Annexin-V and propidium iodide based flow cytometric analysis (reference value: 94.4% ); assay type: functional; conditions: read-out: Activity
[33] = system: HeLa; assay: Antiproliferative activity against human HeLa cells assessed as reduction in cell viability after 96 hrs by MTT assay; assay type: functional, cell-based
[34] = system: MDA-MB-231; assay: Antiproliferative activity against human MDA-MB-231 cells assessed as reduction in cell viability after 96 hrs by MTT assay; assay type: functional, cell-based; conditions: MDA-MB-231, 96 h
[35] = system: MX1; assay: Induction of apoptosis in human MX1 cells assessed as early apoptotic cells measured at 1 uM after 48 hrs by FITC-Annexin-V and propidium iodide based flow cytometric analysis (reference value: 6.30%); assay type: functional

In the case of `CC1(C)C=Cc2c(c(/C=C/C(=O)NCCOc3no[n+]([O-])c3S(=O)(=O)c3ccccc3)cc3c2[nH]c2ccc(C(C)(C)C)cc23)O1`, the Activity [1] is reported as “Active”, the viability at 1 µM [2] is reported as 91.2% and the Activity [3] is reported as 85.3%. The Activity [4] was “Active”, the Activity [5] was 31.2% and the Activity [6] was “Active”. For the same molecule, the Activity [7] was “Dose-Dependent Effect”, the Activity [8] was “Active” and the viability at 2 µM [9] was 11.9%. The viability at 5 µM [10] was 27.5%, the Activity [11] was “Dose-Dependent Effect” and the Activity [12] was 39.8%. The Activity [13] was “Active”, the Activity [14] was 3.76% and the inhibition [15] was “inactive”. The Activity [16] was 57.8%, the Activity [17] was 43.1% and the Activity [18] was 4.85%. The Activity [19] was “Dose-Dependent Effect”, the Activity [20] was 3.12% and the Activity [21] was 40%. For the same molecule, the viability at 0.5 µM [22] was 54.8%, the Activity [23] was “Active” and the Activity [24] was “Active”. The Activity [25] was “Active”, the IC50 [26] was 780 nM and the Activity [27] was “Active”. For the same molecule, the Activity [28] was “Dose-Dependent Effect”, the Activity [29] was 71.2% and the Activity [30] was 0.209%. The Activity [31] was “Dose-Dependent Effect”, the viability at 0.5 µM [32] was 92.4% and the IC50 [33] was 140 nM. For the same molecule, the IC50 [34] was 50 nM and the Activity [35] was 48.2%.
